“Also recorded” adds a separate entry of the source. Where no end group is shown, it is not given here.
Key:
α-synuclein = α-synuclein levels and co-localization in cortex after single i.p. FITC siαSyn:peptide; assay type: in vivo, mouse; conditions: single i.p. injection, 4 hours
[1] = Brain distribution of FITC labeled siαSyn after single i.p. injection (co-labeling NeuN, GFAP); assay type: in vivo, mouse
Procedure: To determine the co-localization between fluorescein isothiocyanate (FITC)-siαSyn and cellular markers, double labeling experiments were performed as previously described (44, 45). […] vibratome sections were immunolabeled with the rabbit polyclonal antibody against α-synuclein (Chemicon, affinity purified polyclonal), NeuN (neuronal marker, Millipore) or GFAP (astroglial marker, Chemicon) and the immunoreactive structures were detected with the Tyramide Signal Amplification™-Direct (Red) system (NEN Life Sciences) while the siRNA was directly visualized by the appended FITC label. Sections were imaged with a Zeiss 63X™ (N.A. 1.4) objective on an Axiovert 35™ microscope (Zeiss) with an attached MRC1024™ LSCM system (BioRad).
4 hours after injection, mice were sacrificed, whole brain removed and fixed. (A,B) Sections were stained for the neuronal marker NeuN and the nuclear stain DAPI and then visualized for co-localization with the FITC labeled siRNA. (D,E) Sections were stained for the astrocytic marker GFAP and the nuclear stain DAPI and then visualized for co-localization with the FITC labeled siRNA.

co-localization of FITC label of siαSyn with αSyn expressing cells (α-synuclein): co-localized with αSyn expressing cells
FITC labeled siRNA delivered to NeuN positive neurons, compared with C2-9r peptide ([1]; α-syn tg mice, 4 hours after i.p. injection): significantly greater
Sequence: RLTRKRGLKLAGGGGGRRRRRRRRR [ApoB^11]
co-labeling of FITC labeled siαSyn RNA with astrocyte marker GFAP ([1]; 4 hours after i.p. injection): co-labeled with the astrocyte marker, GFAP in the cell body but not in the processes
cellular localization of FITC labeled siαSyn in brain (co-labeling with NeuN, GFAP) ([1]; 4 hours after single i.p. injection, 50 μg, siRNA conjugated to the named peptide): delivered siαSyn RNA to neuronal cells; also recorded: primarily to neurons and only to a lesser extent the astrocytes

From patent publication US20210024583A1, “COMPOSITIONS AND METHODS FOR PEPTIDE MEDIATED OLIGONUCLEOTIDE DELIVERY TO THE CENTRAL NERVOUS SYSTEM” (The Regents of the University of California, priority 2019, published 2021)
